The results in this text go back to US5843966A, “Piperidine derivatives” (Glaxo Group Limited, priority 1993, dated 1998).

Where a name gives a salt, the structure may show the parent alone.

For the experiment, the system named is radiation-induced emesis in the ferret. In words: Inhibition of radiation-induced emesis in the ferret. The class given is in vivo. The settings on record: compound administered 1.5 hours prior to irradiation. On the procedure: In this model of emesis the onset of retching and vomiting occurs approximately 20 minutes after whole body irradiation (2 Grey.ident.200 Rads). The test compound is administered (e.g. i.p, p.o., i.v., s.c) immediately after irradiation and its effect on emesis determined by comparison with appropriate controls.
Alternatively, the test compounds may be administered before irradiation or before treatment with an emetogen, for example 1.5, 3 or 6 hours before irradiation.

With `COc1ccc(-n2cnnn2)cc1CN[C@H]1CCCN[C@H]1c1ccccc1` [Example 2], where the note is “0.1 mg/kg s.c.”, the “inhibition of radiation-induced emesis” value was “inhibited radiation-induced emesis”. Regarding `COc1ccc(-n2nnnc2C(F)(F)F)cc1CN[C@H]1CCCN[C@H]1c1ccccc1` [Example 7, [2-Methoxy-5-(5-trifluoromethyl-tetrazol-1-yl)-benzyl]-(2S,3S]-2-phenyl-piperidin-3-yl)-amine dihydrochloride], the “inhibition of radiation-induced emesis” value (0.03 mg/kg s.c.) was “inhibited radiation-induced emesis”.
